The text below walks through data of patent publication US8653056B2, “Method of preparation of a soluble formulation of water-insoluble pentacyclic and tetracyclic terpenoids, a soluble formulation of a pentacyclic or tetracyclic terpenoid and a pharmaceutical composition containing this soluble formulation” (Univerzita Karlova V Praze, Prirodovedecka Fakulta, priority 2006, dated 2014).

The structures appear in SMILES notation.

The first series is described as follows: Concentration of dissolved triterpenoid in the aqueous cyclodextrin solution (HPLC-ESI MS). The series is classed as physicochemical. To be noted: solution method A: water, saturated sodium hydrogencarbonate solution, ethanol, 2-hydroxypropyl-γ-cyclodextrin, 50° C. The protocol:
Into the resulting colourless, viscous solution, soluble triterpene derivative (1.50 g) is added at once and the mixture is again vigorously stirred at the temperature of 50° C. […] After the triterpenoid is completely dissolved, the resulting clear solution is cooled to room temperature, filtered with a syringe filter (hydrophilic, pore size 0.22 μm) in order to be sterile and is placed in a refrigerator.
Method B: In a mixture of water (14.0 ml) and propylene glycol (6.0 ml), 2-hydroxypropyl-γ-cyklodextrin (7.00 g) is dissolved at the temperature of 50° C. under vigorous stirring. Into the resulting colourless, viscous solution, soluble triterpene derivate (1.00 g) is added at once and is again vigorously stirred at the temperature of 50° C. […] After the triterpenoid is completely dissolved, the resulting clear solution is cooled to room temperature, filtered with a syringe filter (hydrophilic, pore size 0.22 μm) in order to be sterile and is placed in a refrigerator.
Analytic Determination of the Concentration of Dissolved Triterpenoids in the Application Form and in Plasma Samples
(§1) HPLC-ESI MS technique was used or the determination of the concentration of dissolved triterpenoids. The samples were measured in one analytical batch with calibration solutions and blind control. The sample for the measurement was prepared from 50 μl of aqueous solution containing the inclusion compound by dilution with methanol to the volume of 10 ml. Subsequently, 10 μl of the sample solution after the first dilution is further diluted to 1 ml by the mobile phase. The blind control was obtained from 50 μl of pre-prepared aqueous solution of 2-hydroxypropyl-γ-cyklodextrin by dilution with methanol to 10 ml. Subsequently, 10 μl of the blind control solution after the first dilution is further diluted to 1 ml by methanol. Stock solutions of standards (concentration 0.2 mg/ml) were prepared by weighing 2.00 mg of analyte to 10 ml graduated flask and dissolution in methanol. The calibration samples were then prepared by dilution of the stock solution with mobile phase (0.4 μg/ml resp. 4 μg/ml).
The concentration was determined by comparison with standard and calculated to the original solution containing the inclusion compound.
For `C=C(C)[C@@H]1CC[C@]2(C(=O)O)CC[C@]3(C)[C@H](CC[C@@H]4[C@@]5(C)CC[C@H](OC(=O)CCC(=O)O)C(C)(C)[C@@H]5CC[C@]43C)[C@@H]12` [2e], the “Conc. of dissolved substance” value was 51000 µg/mL.
As for `CCOC(=O)[C@@]12CC[C@]3(C)[C@H](CC[C@@H]4[C@@]5(C)CC[C@H](OC(=O)COCC(=O)O)C(C)(C)[C@@H]5CC[C@]43C)C1=C(C(C)C)C(=O)C2` [4x], the “Conc. of dissolved substance” value was 44000 µg/mL.
Same read-out and setting: under `CC(C)C1=C2[C@H]3CC[C@@H]4[C@@]5(C)CC[C@H](OC(=O)CC(C)(C)CC(=O)O)C(C)(C)[C@@H]5CC[C@@]4(C)[C@]3(C)CC[C@@]2(C(=O)O)CC1=O` [4u] stands 44000 µg/mL; under `CCOC(=O)[C@@]12CC[C@]3(C)[C@H](CC[C@@H]4[C@@]5(C)CC[C@H](OC(=O)CCC(=O)O)C(C)(C)[C@@H]5CC[C@]43C)C1=C(C(C)C)C(=O)C2` [4e], 53000 µg/mL; under `C=C(C)[C@@H]1CC[C@]2(C(=O)OCC)CC[C@]3(C)[C@H](CC[C@@H]4[C@@]5(C)CC[C@H](OC(=O)c6ccccc6C(=O)O)C(C)(C)[C@@H]5CC[C@]43C)[C@@H]12` [2c], 41000 µg/mL.
For the compound `COC(=O)[C@@]12CC[C@]3(C)[C@H](CC[C@@H]4[C@@]5(C)CC[C@H](OC(=O)CC(C)(C)C(=O)O)C(C)(C)[C@@H]5CC[C@]43C)C1=C(C(C)C)C(=O)C2` [4s], the “Conc. of dissolved substance” value came out at 44000 µg/mL.
In the case of `CC(C)C1=C2[C@H]3CC[C@@H]4[C@@]5(C)CC[C@H](OC(=O)CC(C)(C)C(=O)O)C(C)(C)[C@@H]5CC[C@@]4(C)[C@]3(C)CC[C@@]2(C(=O)O)CC1=O` [4t], the “Conc. of dissolved substance” value was 49000 µg/mL.
For the compound `C=C(C)C1CCC2(C(=O)OC)CCC3(C)C(CCC4C5(C)CCC(OC(=O)C6CC=CCC6C(=O)O)C(C)(C)C5CCC43C)C12` (mixture of isomers) [2m], the “Conc. of dissolved substance” value came to 43000 µg/mL.
Consider `C=C(C)[C@@H]1CC[C@]2(C(=O)O[C@@H]3O[C@H](CO)[C@@H](O)[C@H](O)[C@H]3O)CC[C@]3(C)[C@H](CC[C@@H]4[C@@]5(C)CC[C@H](O)C(C)(C)[C@@H]5CC[C@]43C)[C@@H]12` [2j], for which the “Conc. of dissolved substance” value amounted to 59000 µg/mL.
With `C=C(C)[C@@H]1CC[C@]2(C(=O)O)CC[C@]3(C)[C@H](CC[C@@H]4[C@@]5(C)CC[C@H](O)C(C)(C)[C@@H]5CC[C@]43C)[C@@H]12` [compound 2, Betulinic acid, reference compound], the “Conc. of dissolved substance” value is 38000 µg/mL.
As for `CCOC(=O)[C@@]12CC[C@]3(C)[C@H](CC[C@@H]4[C@@]5(C)CC[C@H](OC(=O)CC(C)(C)CC(=O)O)C(C)(C)[C@@H]5CC[C@]43C)C1=C(C(C)C)C(=O)C2` [4q], the “Conc. of dissolved substance” value is 58000 µg/mL.
Still for that read-out and setting: under `C=C(C)C1CCC2(COC(=O)CCC(=O)O)CCC3(C)C(CCC4C5(C)CCC(OC(=O)CCC(=O)O)C(C)(C)C5CCC43C)C12` (stereo not drawn) [1a, betulin dihemisuccinate] stands 54000 µg/mL; under `CC1(C)C(OC2OC(CO)C(O)C(O)C2O)CCC2(C)C1CCC1(C)C2CCC2C(=O)C(COC3OC(CO)C(O)C(O)C3O)(C(=O)O)CCC21C` (stereo not drawn) [7f], 72000 µg/mL.
Still for that read-out and setting: under `C=C(C)[C@@H]1CC[C@]2(COC(=O)c3ccccc3C(=O)O)CC[C@]3(C)[C@H](CC[C@@H]4[C@@]5(C)CC[C@H](OC(=O)c6ccccc6C(=O)O)C(C)(C)[C@@H]5CC[C@]43C)[C@@H]12` [1b, betulin dihemiphtalate] stands 39000 µg/mL.
As for `C=C(C=O)[C@@H]1CC[C@]2(C(=O)OCC)CC[C@]3(C)[C@H](CC[C@@H]4[C@@]5(C)CC[C@H](OC(=O)c6ccccc6C(=O)O)C(C)(C)[C@@H]5CC[C@]43C)[C@@H]12` [hemiphtalate 3b], the “Conc. of dissolved substance” value amounted to 40000 µg/mL.
As for `CC1(C)C(OC(=O)CCC(=O)O)CCC2(C)C1CCC1(C)C2CCC2C(=O)C(COC(=O)CCC(=O)O)(C(=O)O)CCC21C` (stereo not drawn) [7c], the “Conc. of dissolved substance” value was determined as 73000 µg/mL.
As to `CC(=O)O[C@H]1CC[C@]2(C)[C@H]3CC[C@@H]4C5=C(C(C)C)C(=O)C[C@]5(C(=O)OCC(=O)O)CC[C@@]4(C)[C@]3(C)CC[C@H]2C1(C)C` [4a], the “Conc. of dissolved substance” value stood at 59000 µg/mL.
For the compound `CCOC(=O)[C@@]12CC[C@]3(C)[C@H](CC[C@@H]4[C@@]5(C)CC[C@H](OC(=O)c6ccccc6C(=O)O)C(C)(C)[C@@H]5CC[C@]43C)C1=C(C(C)C)C(=O)C2` [4f], the “Conc. of dissolved substance” value was found to be 28000 µg/mL.
With `CCOC(=O)[C@@]12CC[C@]3(C)[C@H](CC[C@@H]4[C@@]5(C)CC[C@H](OC(=O)CC(C)(C)C(=O)O)C(C)(C)[C@@H]5CC[C@]43C)C1=C(C(C)C)C(=O)C2` [4r], the “Conc. of dissolved substance” value was determined as 44000 µg/mL.

Still in this series, the particulars now being: solution method B: water, propylene glycol, 2-hydroxypropyl-γ-cyclodextrin, 50° C.
On to `COC(=O)C12CCC3(C)C(CCC4C5(C)CCC(O)C(C)(C)C5CCC43C)C1=C(C(C)C)C(=O)C2` (stereo not drawn) [4d], for which the “Conc. of dissolved substance” value was “n (n = concentration lower than the detection threshold, i.e. 1 ng/ml)”.
For `COC(=O)[C@@]12CC[C@]3(C)[C@H](CC[C@@H]4[C@@]5(C)CC[C@H](O[C@@H]6C[C@@H](OC(C)=O)[C@H](OC(C)=O)[C@@H](COC(C)=O)O6)C(C)(C)[C@@H]5CC[C@]43C)C1=C(C(C)C)C(=O)C2` [4l], the “Conc. of dissolved substance” value turned out to be 61000 µg/mL.
`C=C(C=O)[C@@H]1CC[C@]2(C(=O)OCC)CC[C@]3(C)[C@H](CC[C@@H]4[C@@]5(C)CC[C@H](O)C(C)(C)[C@@H]5CC[C@]43C)[C@@H]12` [3a]: the “Conc. of dissolved substance” value is given as “n (n = concentration lower than the detection threshold, i.e. 1 ng/ml)”.
Consider `CC(=O)O[C@H]1CC[C@]2(C)[C@H]3CC[C@@H]4C5=C(C(C)C)C(=O)C[C@]5(C(=O)OCC[N+](C)(C)C)CC[C@@]4(C)[C@]3(C)CC[C@H]2C1(C)C.[Br-]` [4b], for which the “Conc. of dissolved substance” value is 47000 µg/mL.
For `CC(=O)O[C@H]1CC[C@]2(C)[C@H]3CC[C@@H]4C5=C(C(C)C)C(=O)C[C@]5(C(=O)OCC[n+]5ccccc5)CC[C@@]4(C)[C@]3(C)CC[C@H]2C1(C)C.[Br-]` [4c], the “Conc. of dissolved substance” value amounted to 33000 µg/mL.
In the case of `C=C(C)[C@@H]1CC[C@]2(C(=O)OCC)CC[C@]3(C)[C@H](CC[C@@H]4[C@@]5(C)CC[C@H](O[C@@H]6O[C@H](CO)[C@@H](O)[C@H](O)[C@H]6O)C(C)(C)[C@@H]5CC[C@]43C)[C@@H]12` [2d], the “Conc. of dissolved substance” value was 43000 µg/mL.
On the same count and under the same terms, under `C=C(C)[C@@H]1CC[C@]2(C(=O)O[C@@H]3O[C@H](CO)[C@@H](O)[C@H](O)[C@H]3O)CC[C@]3(C)[C@H](CC[C@@H]4[C@@]5(C)CC[C@H](O)C(C)(C)[C@@H]5CC[C@]43C)[C@@H]12` [2j] stands 70000 µg/mL.
With `C=C(C)[C@@H]1CC[C@]2(C(=O)OC)CC[C@]3(C)[C@H](CC[C@@H]4[C@@]5(C)CC[C@H](O)C(C)(C)[C@@H]5CC[C@]43C)[C@@H]12` [2h, Methyl betulinate], the “Conc. of dissolved substance” value is on record as “n (n = concentration lower than the detection threshold, i.e. 1 ng/ml)”.
Still for that read-out and setting: under `C=C(C)[C@@H]1CC[C@]2(CO)CC[C@]3(C)[C@H](CC[C@@H]4[C@@]5(C)CC[C@H](O)C(C)(C)[C@@H]5CC[C@]43C)[C@@H]12` [Betulin, reference compound] stands “n (n = concentration lower than the detection threshold, i.e. 1 ng/ml)”; under `C=C(C)[C@@H]1CC[C@]2(C(=O)OCC)CC[C@]3(C)[C@H](CC[C@@H]4[C@@]5(C)CC[C@H](O)C(C)(C)[C@@H]5CC[C@]43C)[C@@H]12` [2a, Ethyl-betulinate], “n (n = concentration lower than the detection threshold, i.e. 1 ng/ml)”; under `CC1(C)C(OC2OC(CO)C(O)C(O)C2O)CCC2(C)C1CCC1(C)C2CCC2C(=O)C(COC3OC(CO)C(O)C(O)C3O)(C(=O)O)CCC21C` (stereo not drawn) [7f], 79000 µg/mL.
On the same count and under the same terms, under `C=C(C)[C@@H]1CC[C@]2(CO[C@@H]3O[C@H](CO)[C@@H](O)[C@H](O)[C@H]3O)CC[C@]3(C)[C@H](CC[C@@H]4[C@@]5(C)CC[C@H](O[C@@H]6O[C@H](CO)[C@@H](O)[C@H](O)[C@H]6O)C(C)(C)[C@@H]5CC[C@]43C)[C@@H]12` [1c, betulin diglucoside] stands 55000 µg/mL.
On the same count and under the same terms, under `CCOC(=O)[C@@]12CC[C@]3(C)[C@H](CC[C@@H]4[C@@]5(C)CC[C@H](O[C@@H]6C[C@@H](OC(C)=O)[C@@H](OC(C)=O)[C@@H](COC(C)=O)O6)C(C)(C)[C@@H]5CC[C@]43C)C1=C(C(C)C)C(=O)C2` [4j] stands 60000 µg/mL.

The nature of a further series: Bioavailability and pharmacokinetic profile at oral administration to laboratory mice. In kind it is in vivo, outbred mice CD-1. To be noted: intragastric single dose 200 μl, soluble cyclodextrin formulation. The protocol: Determination of Bioavailability and Pharmacokinetic Profile at Oral Administration of the Compounds to Laboratory Mice
Soluble cyclodextrin formulations of terpenoid compounds, prepared in accordance with the aforementioned methods A or B, were administered without dilution to outbred mice CD-1 intragastrically (200 μl in a single dose) as aqueous solutions by injection syringe equipped with a gastric tube. Insoluble compounds were administered intragastrically as well (200 μl in a single dose), but in the form of aqueous suspensions in 0.5-1% carboxymethyl cellulose. In time intervals 2, 4, 6, 8, 12 and 24 h, blood was taken from the mice, the blood was centrifuged and the obtained plasma was subsequently analysed by HPLC-ESI MS technique.
as §1
The analysis was carried out at ODS Hypersil 125×2.1 mm, 5 um, SN 0745415X, Thermo EC column, ODS 4.0×3.0 mm precolumn, Phenomenex, mobile phase A—100 mmol/L aqueous solution of ammonium formate, pH is adjusted to 5 by formic acid, B—100 mmol/L methanolic solution of ammonium formate, column temperature: 25° C., linear gradient or isocratic elution, injected volume 30 μl. The concentration was determined by comparison with standard and calculated to the original solution containing the inclusion compound.
Turning to `CC(C)C1=C2[C@H]3CC[C@@H]4[C@@]5(C)CC[C@H](OC(=O)CC(C)(C)C(=O)O)C(C)(C)[C@@H]5CC[C@@]4(C)[C@]3(C)CC[C@@]2(C(=O)O)CC1=O` [4t], the oral availability entry is recorded as “prove oral availability”.
